Consider 31 compounds from patent publication US9655902B2, “Guanidine derivatives for the treatment of hepatitis C” (priority 2013, dated 2017).

Read-outs that look alike come from different tables or passages of the source.

A word on the EC50: it is the concentration at which the effect is half-maximal.

This assay has as its system HCV pseudoparticles (genotype 1a HCV E1 and E2 envelope, H77C isolate). The experiment in a line: HCV pseudoparticle infection assay (luciferase reporter, Huh7 cells). The assay is classed as cell-based, HCV genotype 1a. The conditions noted are these: Hepatitis C virus, Huh-7, 48 h, read-out: EC50 (1a, nM), genotype 1a HCV pseudoparticles, Huh7 cells, luciferase 2 days after infection.

`N=C(N)N1CCCN(C(=O)c2ccc(Nc3nc(NC4(c5ccc(Cl)cc5)CC4)nc(OCC(F)(F)F)n3)cc2)CC1` [Compound 1001, 4-(4-(4-(1-(4-chlorophenyl)cyclopropylamino)-6-(2,2,2-trifluoroethoxy)-1,3,5-triazin-2-ylamino)benzoyl)-1,4-diazepane-1-carboximidamide]: for the setting “class symbol”, the concentration giving a half-maximal response (EC50) fell in the range of 0.01 to 10 nM.

Regarding `N=C(N)NCCC[C@@H](NC(=O)c1ccc(Nc2nc(NC3(c4ccc(Cl)cc4)CC3)nc(OCC(F)(F)F)n2)cc1)C(=O)O` [Compound 1002, (R)-2-(4-(4-(1-(4-chlorophenyl)cyclopropylamino)-6-(2,2,2-trifluoroethoxy)-1,3,5-triazin-2-ylamino)benzamido)-5-guanidinopentanoic acid], the half-maximal effective concentration (EC50) (class symbol) was 0.01 to 10 nM.

For `N=C(N)NCCC[C@H](NC(=O)c1ccc(Nc2nc(NC3(c4ccc(Cl)cc4)CC3)nc(OCC(F)(F)F)n2)cc1)C(=O)O` [Compound 1003, (S)-2-(4-(4-(1-(4-chlorophenyl)cyclopropylamino)-6-(2,2,2-trifluoroethoxy)-1,3,5-triazin-2-ylamino)benzamido)-5-guanidinopentanoic acid], the concentration for a half-maximal effect (EC50) reads like this: (class symbol) 0.01 to 10 nM; (numeric value) 0.711 nM.

Turning to `N=C(N)N1CCCN(C(=O)c2ccc(Nc3nc(NCc4ccc(Cl)cc4)nc(OCC(F)(F)F)n3)cc2)CC1` [Compound 1004, 4-(4-(4-(4-chlorobenzylamino)-6-(2,2,2-trifluoroethoxy)-1,3,5-triazin-2-ylamino)benzoyl)-1,4-diazepane-1-carboximidamide], where the note is “class symbol”, the concentration for a half-maximal effect (EC50) fell in the range of 10 to 1000 nM.

`N=C(N)NCCCCNC(=O)c1ccc(Nc2nc(NCc3ccc(Cl)cc3)nc(OCC(F)(F)F)n2)cc1` [Compound 1005, 4-(4-(4-chlorobenzylamino)-6-(2,2,2-trifluoroethoxy)-1,3,5-triazin-2-ylamino)-N-(4-guanidinobutyl)benzamide]: the 50% effective concentration (EC50) reads like this: (class symbol) 10 to 1000 nM; (numeric value) 29.5 nM.

For `N=C(N)NCCC[C@@H](NC(=O)c1ccc(Nc2nc(NCc3ccc(Cl)cc3)nc(OCC(F)(F)F)n2)cc1)C(=O)O` [Compound 1006, (R)-2-(4-(4-(4-chlorobenzylamino)-6-(2,2,2-trifluoroethoxy)-1,3,5-triazin-2-ylamino)benzamido)-5-guanidinopentanoic acid], the half-maximal effective concentration (EC50) (class symbol) fell in the range of 10 to 1000 nM.

As for `N=C(N)NCCC[C@H](NC(=O)c1ccc(Nc2nc(NCc3ccc(Cl)cc3)nc(OCC(F)(F)F)n2)cc1)C(=O)O` [Compound 1007, (S)-2-(4-(4-(4-chlorobenzylamino)-6-(2,2,2-trifluoroethoxy)-1,3,5-triazin-2-ylamino)benzamido)-5-guanidinopentanoic acid], under “class symbol”, the EC50 was in the range of 10 to 1000 nM.

With `NC(=O)/N=C(\NC1CCCC1)N1CCN(C(=O)c2ccc(Nc3nc(NC4(c5ccc(Cl)cc5)CC4)nc(OCC(F)(F)F)n3)cc2)CC1` [Compound 1008, N′-carbamoyl-4-(4-(4-(1-(4-chlorophenyl)cyclopropylamino)-6-(2,2,2-trifluoroethoxy)-1,3,5-triazin-2-ylamino)benzoyl)-N-cyclopentylpiperazine-1-carboximidamide], the concentration for a half-maximal effect (EC50) (class symbol) fell in the range of 0.01 to 10 nM.

Turning to `N#C/N=C(\NC1CCCC1)N1CCN(C(=O)c2ccc(Nc3nc(NC4(c5ccc(Cl)cc5)CC4)nc(OCC(F)(F)F)n3)cc2)CC1` [Compound 1009, 4-(4-(4-(1-(4-chlorophenyl)cyclopropylamino)-6-(2,2,2-trifluoroethoxy)-1,3,5-triazin-2-ylamino)benzoyl)-N′-cyano-N-cyclopentylpiperazine-1-carboximidamide], the EC50 is 0.01 to 10 nM (class symbol) and 3.57 nM (numeric value).

As for `NC(=O)/N=C(\N1CCC1)N1CCN(C(=O)c2ccc(Nc3nc(NC4(c5ccc(Cl)cc5)CC4)nc(OCC(F)(F)F)n3)cc2)CC1` [Compound 1010, 1-(azetidin-1-yl(4-(4-(4-(1-(4-chlorophenyl)cyclopropylamino)-6-(2,2,2-trifluoroethoxy)-1,3,5-triazin-2-ylamino)benzoyl)piperazin-1-yl)methylene)urea], under “class symbol”, the EC50 lay in the range of 0.01 to 10 nM.

In the case of `N#C/N=C(\N1CCC1)N1CCN(C(=O)c2ccc(Nc3nc(NC4(c5ccc(Cl)cc5)CC4)nc(OCC(F)(F)F)n3)cc2)CC1` [Compound 1011, N-(azetidin-1-yl(4-(4-(4-(1-(4-chlorophenyl)cyclopropylamino)-6-(2,2,2-trifluoroethoxy)-1,3,5-triazin-2-ylamino)benzoyl)piperazin-1-yl)methylene)cyanamide], under “class symbol”, the EC50 fell in the range of 0.01 to 10 nM.

As for `NC(=O)/N=C(\N1CCCCC1)N1CCN(C(=O)c2ccc(Nc3nc(NC4(c5ccc(Cl)cc5)CC4)nc(OCC(F)(F)F)n3)cc2)CC1` [Compound 1012, 1-((4-(4-(4-(1-(4-chlorophenyl)cyclopropylamino)-6-(2,2,2-trifluoroethoxy)-1,3,5-triazin-2-ylamino)benzoyl)piperazin-1-yl)(piperidin-1-yl)methylene)urea], for the setting “class symbol”, the EC50 was in the range of 0.01 to 10 nM.

As for `N#C/N=C(\N1CCCCC1)N1CCN(C(=O)c2ccc(Nc3nc(NC4(c5ccc(Cl)cc5)CC4)nc(OCC(F)(F)F)n3)cc2)CC1` [Compound 1013, N-((4-(4-(4-(1-(4-chlorophenyl)cyclopropylamino)-6-(2,2,2-trifluoroethoxy)-1,3,5-triazin-2-ylamino)benzoyl)piperazin-1-yl)(piperidin-1-yl)methylene)cyanamide], the concentration for a half-maximal effect (EC50) (class symbol) lay in the range of 0.01 to 10 nM.

On to `N=C1NCCN1C(=O)c1ccc(Nc2nc(NC3(c4ccc(Cl)cc4)CC3)nc(OCC(F)(F)F)n2)cc1` [Compound 1014, (4-(4-(1-(4-chlorophenyl)cyclopropylamino)-6-(2,2,2-trifluoroethoxy)-1,3,5-triazin-2-ylamino)phenyl)(2-iminoimidazolidin-1-yl)methanone], for which the EC50 is, setting by setting: (class symbol) 0.01 to 10 nM; (numeric value) 3.01 nM.

As to `N=C(N)NC[C@H](NC(=O)c1ccc(Nc2nc(NC3(c4ccc(Cl)cc4)CC3)nc(OCC(F)(F)F)n2)cc1)C(=O)O` [Compound 1015, (S)-2-(4-(4-(1-(4-chlorophenyl)cyclopropylamino)-6-(2,2,2-trifluoroethoxy)-1,3,5-triazin-2-ylamino)benzamido)-3-guanidinopropanoic acid], the EC50 (class symbol) lay in the range of 0.01 to 10 nM.

Regarding `N=C(N)NCCC[C@H](NC(=O)c1ccc(Nc2nc(NC3(c4ccc(Cl)cc4)CC3)nc(OCC(F)(F)F)n2)cc1)C(N)=O` [Compound 1016, (S)—N-(1-amino-5-guanidino-1-oxopentan-2-yl)-4-(4-(1-(4-chlorophenyl)cyclopropylamino)-6-(2,2,2-trifluoroethoxy)-1,3,5-triazin-2-ylamino)benzamide], the 50% effective concentration (EC50) was 0.01 to 10 nM (class symbol) and 0.352 nM (numeric value).

For `N=C(N)N1CCCN(C(=O)c2ccc(Nc3nc(NCc4ccc(Cl)cc4)nc(OCc4ccccc4)n3)cc2)CC1` [Compound 1017], the 50% effective concentration (EC50) (class symbol) was 10 to 1000 nM.

Turning to `N=C(N)N1CCCN(C(=O)c2cccc(Nc3nc(NCc4ccc(Cl)cc4)nc(OCc4ccccc4)n3)c2)CC1` [Compound 1018], the concentration for a half-maximal effect (EC50) (class symbol) lay within 10 to 1000 nM.

Take `N=C(N)NCCC[C@H](NC(=O)c1ccc(Nc2nc(NCc3ccc(Cl)cc3)nc(OCc3ccccc3)n2)cc1)C(=O)N[C@@H](CCC(N)=O)C(=O)O` [Compound 1019]: the 50% effective concentration (EC50) (class symbol) lay within 10 to 1000 nM.

As for `N=C(N)NNC(=O)c1ccc(Nc2nc(NCc3ccc(Cl)cc3)nc(OCc3ccccc3)n2)cc1` [Compound 1020], the EC50 runs as follows: (class symbol) 10 to 1000 nM; (numeric value) 175 nM.

On to `N=C(N)NNC(=O)c1cccc(Nc2nc(NCc3ccc(Cl)cc3)nc(OCc3ccccc3)n2)c1` [Compound 1021], for which, for the setting “class symbol”, the EC50 was > 1000 nM.

For `N=C(N)NS(=O)(=O)c1ccc(NC(=O)c2ccc(Nc3nc(NCc4ccc(Cl)cc4)nc(OCc4ccccc4)n3)cc2)cc1` [Compound 1022], the EC50 was 10 to 1000 nM (class symbol) and 62.5 nM (numeric value).

Regarding `N=C(N)NS(=O)(=O)c1ccc(NC(=O)c2cccc(Nc3nc(NCc4ccc(Cl)cc4)nc(OCc4ccccc4)n3)c2)cc1` [Compound 1023], the concentration giving a half-maximal response (EC50) (class symbol) lay within 10 to 1000 nM.

For the compound `N=C(N)NCCCCNC(=O)c1ccc(Nc2nc(NCc3ccc(Cl)cc3)nc(OCc3ccccc3)n2)cc1` [Compound 1024], the 50% effective concentration (EC50) (class symbol) lay in the range of 10 to 1000 nM.

For the compound `N=C(N)NCCCCNC(=O)c1cccc(Nc2nc(NCc3ccc(Cl)cc3)nc(OCc3ccccc3)n2)c1` [Compound 1025], the concentration for a half-maximal effect (EC50) by setting is: (class symbol) > 1000 nM; (numeric value) 4480 nM.

With `N=C(N)N1CCN(C(=O)c2ccc(Nc3nc(NCc4ccc(Cl)cc4)nc(OCc4ccccc4)n3)cc2)CC1` [Compound 1026], the half-maximal effective concentration (EC50) (class symbol) fell in the range of 10 to 1000 nM.

`N=C(N)N1CCN(C(=O)c2cccc(Nc3nc(NCc4ccc(Cl)cc4)nc(OCc4ccccc4)n3)c2)CC1` [Compound 1027]: the EC50 (class symbol) was 10 to 1000 nM.

As to `[2H]C([2H])(Oc1nc(Nc2ccc(C(=O)N[C@@H](CCCNC(=N)N)C(N)=O)cc2)nc(NC2(c3ccc(Cl)cc3)CC2)n1)C(F)(F)F` [Compound 1028], the EC50 (class symbol) lay within 0.01 to 10 nM.

With `[2H]C([2H])(Oc1nc(Nc2ccc(C(=O)N[C@H](CCCNC(=N)N)C(=O)N[C@@H](Cc3ccccc3)C(=O)O)cc2)nc(NC2(c3ccc(Cl)cc3)CC2)n1)C(F)(F)F` [Compound 1029], for the setting “class symbol”, the half-maximal effective concentration (EC50) lay in the range of 0.01 to 10 nM.

`[2H]C([2H])(Oc1nc(Nc2ccc(C(=O)N[C@@H](CCCNC(=N)N)C(=O)NCC(N)=O)cc2)nc(NC2(c3ccc(Cl)cc3)CC2)n1)C(F)(F)F` [Compound 1030]: the EC50 (class symbol) lay within 0.01 to 10 nM.

Regarding `[2H]C([2H])(Oc1nc(Nc2ccc(C(=O)N[C@@H](CCCNC(=N)N)C(=O)N[C@@H](CC(N)=O)C(N)=O)cc2)nc(NC2(c3ccc(Cl)cc3)CC2)n1)C(F)(F)F` [Compound 1031], the 50% effective concentration (EC50) (class symbol) fell in the range of 0.01 to 10 nM.
